In brackets after ≈: the same amount, converted by molar mass.
Experiments:
CCRF-CEM = assay: Tested for the growth inhibition of CCRF-CEM, a human T-cell derived lymphoblastic leukemic cell line; type: functional, cell-based
[1] = target: T1, Trifunctional purine biosynthetic protein adenosine-3 (Homo sapiens, UniProt P22102); assay: Tested for the inhibition of recombinant human monofunctional Glycinamide ribonucleotide formyltransferase
T1 sequence (P22102 whole entry): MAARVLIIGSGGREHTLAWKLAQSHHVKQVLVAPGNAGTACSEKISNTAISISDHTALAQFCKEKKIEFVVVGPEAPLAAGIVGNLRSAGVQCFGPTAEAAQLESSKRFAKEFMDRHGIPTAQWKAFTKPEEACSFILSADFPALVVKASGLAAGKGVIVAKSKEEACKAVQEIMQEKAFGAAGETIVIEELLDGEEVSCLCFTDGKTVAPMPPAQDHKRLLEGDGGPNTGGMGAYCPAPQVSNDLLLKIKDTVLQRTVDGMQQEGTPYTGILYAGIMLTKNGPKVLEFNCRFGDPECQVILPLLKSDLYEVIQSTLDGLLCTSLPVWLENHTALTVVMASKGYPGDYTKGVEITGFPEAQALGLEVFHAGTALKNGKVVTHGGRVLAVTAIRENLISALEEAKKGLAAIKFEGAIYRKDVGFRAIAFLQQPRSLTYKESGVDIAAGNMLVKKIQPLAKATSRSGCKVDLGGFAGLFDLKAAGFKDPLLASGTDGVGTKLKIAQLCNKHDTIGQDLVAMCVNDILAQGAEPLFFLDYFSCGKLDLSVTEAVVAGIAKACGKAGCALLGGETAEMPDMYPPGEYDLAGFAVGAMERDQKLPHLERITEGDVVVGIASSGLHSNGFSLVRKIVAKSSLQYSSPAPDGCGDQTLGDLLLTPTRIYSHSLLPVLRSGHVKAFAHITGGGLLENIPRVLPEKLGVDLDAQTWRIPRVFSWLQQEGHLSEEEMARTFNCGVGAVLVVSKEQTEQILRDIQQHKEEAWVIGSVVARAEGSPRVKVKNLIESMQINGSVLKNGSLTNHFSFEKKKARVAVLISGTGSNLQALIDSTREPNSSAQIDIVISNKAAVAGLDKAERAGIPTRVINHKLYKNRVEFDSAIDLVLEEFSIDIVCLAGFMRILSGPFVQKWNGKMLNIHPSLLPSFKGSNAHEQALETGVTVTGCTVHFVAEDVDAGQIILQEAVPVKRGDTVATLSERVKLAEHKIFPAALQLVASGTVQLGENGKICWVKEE

[2] = target: T2, Trifunctional purine biosynthetic protein adenosine-3 (Mus musculus, UniProt Q64737); assay: Tested for the inhibition of trifunctional Glycinamide ribonucleotide formyltransferase isolated from murine L1210 cells.; type: functional
T2 sequence (Q64737 whole entry): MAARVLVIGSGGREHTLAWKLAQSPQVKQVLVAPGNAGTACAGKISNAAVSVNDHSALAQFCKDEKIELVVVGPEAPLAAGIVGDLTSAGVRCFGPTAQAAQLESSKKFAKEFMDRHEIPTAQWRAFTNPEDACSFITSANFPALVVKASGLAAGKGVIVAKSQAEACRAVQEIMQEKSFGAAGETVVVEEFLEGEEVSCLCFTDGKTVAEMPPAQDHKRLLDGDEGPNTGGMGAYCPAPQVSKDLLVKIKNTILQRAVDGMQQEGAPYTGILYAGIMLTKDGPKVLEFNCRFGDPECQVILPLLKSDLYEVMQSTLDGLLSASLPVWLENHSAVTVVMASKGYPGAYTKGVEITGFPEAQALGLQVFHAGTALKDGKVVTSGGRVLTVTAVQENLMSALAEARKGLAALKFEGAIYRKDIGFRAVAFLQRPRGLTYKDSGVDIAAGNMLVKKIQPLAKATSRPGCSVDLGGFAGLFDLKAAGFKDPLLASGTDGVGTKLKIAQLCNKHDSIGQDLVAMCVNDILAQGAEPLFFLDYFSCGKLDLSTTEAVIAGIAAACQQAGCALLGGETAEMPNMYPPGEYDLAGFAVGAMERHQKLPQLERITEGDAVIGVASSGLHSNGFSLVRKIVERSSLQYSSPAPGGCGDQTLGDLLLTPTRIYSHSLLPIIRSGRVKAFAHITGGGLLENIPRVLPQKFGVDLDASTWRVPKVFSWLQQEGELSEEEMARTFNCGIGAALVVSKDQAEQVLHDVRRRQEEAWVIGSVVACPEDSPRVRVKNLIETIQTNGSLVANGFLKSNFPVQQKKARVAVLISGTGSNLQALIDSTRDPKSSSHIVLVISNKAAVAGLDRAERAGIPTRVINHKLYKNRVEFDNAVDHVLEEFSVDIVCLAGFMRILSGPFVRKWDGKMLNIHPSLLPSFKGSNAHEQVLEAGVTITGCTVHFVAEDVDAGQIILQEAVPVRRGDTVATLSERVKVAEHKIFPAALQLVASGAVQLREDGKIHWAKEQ

Ki [2] | Structure (SMILES) | IC50 (CCRF-CEM) | Ki [1]
 | Nc1ncc2c(n1)NCC(CCc1ccc(C(=O)N[C@@H](CCC(=O)O)C(=O)O)cc1)C2 (stereo partly specified) | 4 ng/mL (≈ 9.36 nM) | 186 µM
27 µM | O=C(O)CC[C@H](NC(=O)c1ccc(CCC2CNc3ncnc(O)c3C2)cc1)C(=O)O (stereo partly specified) | > 20000 ng/mL | 82.1 µM
0.12 µM | Nc1nc2c(c(=O)[nH]1)C[C@@H](CCc1ccc(C(=O)N[C@@H](CCC(=O)O)C(=O)O)cc1)CN2 [LOMETREXOL] |  | 

Reference: ChEMBL document CHEMBL1127157, “Synthesis and biological activity of 2-desamino and 4-deoxy analogs of 5,10-dideazatetrahydrofolic acid (DDATHF)” (Bioorg Med Chem Lett, 1993)
